This is an account of results in patent US8158830B1, “Integrated process for the preparation of tetraaminobenzene” (E. I. du Pont de Nemours and Company, priority 2007, dated 2012).

The data set is described as follows: solubility of TAB.4HCl in water. It counts as physicochemical. As to conditions: water at 25° C. On the procedure:
The reaction mixture containing the precipitated TAB salt is then cooled to about 5° C. to about 15° C. and stirred, then filtered. The TAB salt is then washed 44. It may be washed with deaerated aqueous acid, such as HCl (33%), and then optionally with deaerated ethanol or methanol to produce a wet cake material; the optional ethanol or methanol wash can then be recycled 48, 47, and a purge is drawn to prevent accumulation. Using an agitated filter unit during the wash procedures can allow for a reduction of the wash volumes. Under such circumstances, using small amounts of cold water (e.g. about 5° C.) instead of the aqueous acid would also be effective as the TAB salt would have lower solubility in the cold water than it would have in water at about room temperature (e.g. 25° C.). For example, the solubility of TAB.4HCl in water at 25° C. is about 15 wt %.

For `Nc1cc(N)c(N)cc1N` [TAB.4HCl, 1,2,4,5-tetraminobenzene], the solubility in water entry is on record as “about 15 wt %”.
